Data published in the kinase profiling compilation of Christmann-Franck et al. (2016).
Blank lines part the entries; values can stand above or below the molecule they belong to.

Assays:
Experiment in all cases: KINOMEscan competition binding
Details in all cases: compound 10.0 µM
ACVR1 (human) = ACVR1 (human) (UniProt Q04771)
CAMKK1 (human) = CAMKK1 (human) (UniProt Q8N5S9)
CLK2 (human) = CLK2 (human) (UniProt P49760)
CLK3 (human) = CLK3 (human) (UniProt P49761)
CLK4 (human) = CLK4 (human) (UniProt Q9HAZ1)
DAPK2 (human) = DAPK2 (human) (UniProt Q9UIK4)
FLT3 (human) = FLT3 (human) (UniProt P36888)
[1] = system: FLT3 (human), P36888 [D835Y]
[2] = system: KIT (human), P10721 [V559D/T670I]
[3] = system: KIT (human), P10721 [V559D]
MAP2K3 (human) = MAP2K3 (human) (UniProt P46734)
PIM2 (human) = PIM2 (human) (UniProt Q9P1W9)
PRKD3 (human) = PRKD3 (human) (UniProt O94806)
SRPK2 (human) = SRPK2 (human) (UniProt P78362)
SRPK3 (human) = SRPK3 (human) (UniProt Q9UPE1)
STK11 (human) = STK11 (human) (UniProt Q15831)
TAOK1 (human) = TAOK1 (human) (UniProt Q7L7X3)
TTK (human) = TTK (human) (UniProt P33981)
CSNK1G3 (human) = CSNK1G3 (human) (UniProt Q9Y6M4)
[4] = system: EGFR (human), P00533 [747-751 del / S ins]
[5] = system: EGFR (human), P00533 [G719S]
[6] = system: FLT3 (human), P36888 [D835H]
[7] = system: FLT3 (human), P36888 [ITD]
GAK (human) = GAK (human) (UniProt O14976)
[8] = target: JAK1 JH2 pseudokinase (human) (UniProt P23458)
[9] = system: KIT (human), P10721 [V559D/V654A]
MAP2K4 (human) = MAP2K4 (human) (UniProt P45985)
MAPK8 (human) = MAPK8 (human) (UniProt P45983)
MELK (human) = MELK (human) (UniProt Q14680)
MKNK1 (human) = MKNK1 (human) (UniProt Q9BUB5)
PDGFRB (human) = PDGFRB (human) (UniProt P09619)
RIPK4 (human) = RIPK4 (human) (UniProt P57078)
RPS6KA1 KD2 (human) = RPS6KA1 KD2 (human) (UniProt Q15418)
RPS6KA6 KD2 (human) = RPS6KA6 KD2 (human) (UniProt Q9UK32)
STK16 (human) = STK16 (human) (UniProt O75716)
STK24 (human) = STK24 (human) (UniProt Q9Y6E0)
STK33 (human) = STK33 (human) (UniProt Q9BYT3)
TLK1 (human) = TLK1 (human) (UniProt Q9UKI8)
TNIK (human) = TNIK (human) (UniProt Q9UKE5)
TNK1 (human) = TNK1 (human) (UniProt Q13470)
[10] = target: TYK2 JH2 pseudokinase (human) (UniProt P29597)
ULK2 (human) = ULK2 (human) (UniProt Q8IYT8)

KIT (human), P10721 [V559D/V654A], sequence (P10721 whole entry V559D/V654A, looked up): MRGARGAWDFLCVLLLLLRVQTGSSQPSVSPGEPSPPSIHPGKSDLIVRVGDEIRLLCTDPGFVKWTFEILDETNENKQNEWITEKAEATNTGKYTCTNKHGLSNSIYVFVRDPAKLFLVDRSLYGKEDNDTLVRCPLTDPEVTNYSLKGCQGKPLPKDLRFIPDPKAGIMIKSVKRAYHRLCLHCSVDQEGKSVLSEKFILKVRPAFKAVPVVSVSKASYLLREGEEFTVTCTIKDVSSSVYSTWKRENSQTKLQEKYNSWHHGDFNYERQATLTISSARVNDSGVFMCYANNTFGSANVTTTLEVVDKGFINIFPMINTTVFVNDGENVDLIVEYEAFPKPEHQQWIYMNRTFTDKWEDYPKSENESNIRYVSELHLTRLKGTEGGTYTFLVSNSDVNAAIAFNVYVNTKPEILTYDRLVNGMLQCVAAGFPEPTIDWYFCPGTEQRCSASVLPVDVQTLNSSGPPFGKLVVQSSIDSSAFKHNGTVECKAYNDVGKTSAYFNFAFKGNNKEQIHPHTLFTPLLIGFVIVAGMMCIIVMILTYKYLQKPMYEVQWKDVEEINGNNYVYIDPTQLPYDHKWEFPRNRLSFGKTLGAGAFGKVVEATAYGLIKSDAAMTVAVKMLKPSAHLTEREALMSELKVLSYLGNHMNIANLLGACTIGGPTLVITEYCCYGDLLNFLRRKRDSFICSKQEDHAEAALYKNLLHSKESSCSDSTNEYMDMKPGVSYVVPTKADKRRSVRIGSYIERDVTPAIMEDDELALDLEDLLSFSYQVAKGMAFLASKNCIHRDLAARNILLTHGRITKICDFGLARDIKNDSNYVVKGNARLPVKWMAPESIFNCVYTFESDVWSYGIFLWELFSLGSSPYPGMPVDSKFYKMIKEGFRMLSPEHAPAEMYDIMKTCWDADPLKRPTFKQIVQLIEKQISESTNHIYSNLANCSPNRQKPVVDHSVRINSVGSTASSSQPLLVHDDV
DAPK2 (human), sequence (Q9UIK4 whole entry, looked up): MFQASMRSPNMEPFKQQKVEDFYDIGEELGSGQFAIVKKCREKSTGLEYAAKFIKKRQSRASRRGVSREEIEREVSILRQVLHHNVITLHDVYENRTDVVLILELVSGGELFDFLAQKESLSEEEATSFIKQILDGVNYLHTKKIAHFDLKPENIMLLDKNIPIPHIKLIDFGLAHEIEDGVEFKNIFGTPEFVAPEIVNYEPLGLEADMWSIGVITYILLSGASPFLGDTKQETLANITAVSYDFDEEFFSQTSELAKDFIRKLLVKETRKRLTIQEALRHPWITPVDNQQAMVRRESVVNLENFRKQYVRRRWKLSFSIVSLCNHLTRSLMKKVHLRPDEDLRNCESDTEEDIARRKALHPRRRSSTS
STK33 (human), sequence (Q9BYT3 whole entry, looked up): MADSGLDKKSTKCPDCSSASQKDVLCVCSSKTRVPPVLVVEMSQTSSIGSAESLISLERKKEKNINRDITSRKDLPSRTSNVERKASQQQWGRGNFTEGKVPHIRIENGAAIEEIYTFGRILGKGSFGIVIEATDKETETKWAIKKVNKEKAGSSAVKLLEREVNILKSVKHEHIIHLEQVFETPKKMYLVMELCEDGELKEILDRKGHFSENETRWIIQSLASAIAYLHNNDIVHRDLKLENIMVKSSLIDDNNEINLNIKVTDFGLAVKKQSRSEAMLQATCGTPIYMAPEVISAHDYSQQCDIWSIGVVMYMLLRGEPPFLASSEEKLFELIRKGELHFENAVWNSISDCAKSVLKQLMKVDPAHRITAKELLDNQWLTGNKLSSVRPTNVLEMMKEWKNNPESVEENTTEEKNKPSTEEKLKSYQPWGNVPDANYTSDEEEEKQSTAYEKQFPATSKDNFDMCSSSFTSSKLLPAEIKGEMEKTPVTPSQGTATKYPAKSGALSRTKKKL
PRKD3 (human), sequence (O94806 whole entry, looked up): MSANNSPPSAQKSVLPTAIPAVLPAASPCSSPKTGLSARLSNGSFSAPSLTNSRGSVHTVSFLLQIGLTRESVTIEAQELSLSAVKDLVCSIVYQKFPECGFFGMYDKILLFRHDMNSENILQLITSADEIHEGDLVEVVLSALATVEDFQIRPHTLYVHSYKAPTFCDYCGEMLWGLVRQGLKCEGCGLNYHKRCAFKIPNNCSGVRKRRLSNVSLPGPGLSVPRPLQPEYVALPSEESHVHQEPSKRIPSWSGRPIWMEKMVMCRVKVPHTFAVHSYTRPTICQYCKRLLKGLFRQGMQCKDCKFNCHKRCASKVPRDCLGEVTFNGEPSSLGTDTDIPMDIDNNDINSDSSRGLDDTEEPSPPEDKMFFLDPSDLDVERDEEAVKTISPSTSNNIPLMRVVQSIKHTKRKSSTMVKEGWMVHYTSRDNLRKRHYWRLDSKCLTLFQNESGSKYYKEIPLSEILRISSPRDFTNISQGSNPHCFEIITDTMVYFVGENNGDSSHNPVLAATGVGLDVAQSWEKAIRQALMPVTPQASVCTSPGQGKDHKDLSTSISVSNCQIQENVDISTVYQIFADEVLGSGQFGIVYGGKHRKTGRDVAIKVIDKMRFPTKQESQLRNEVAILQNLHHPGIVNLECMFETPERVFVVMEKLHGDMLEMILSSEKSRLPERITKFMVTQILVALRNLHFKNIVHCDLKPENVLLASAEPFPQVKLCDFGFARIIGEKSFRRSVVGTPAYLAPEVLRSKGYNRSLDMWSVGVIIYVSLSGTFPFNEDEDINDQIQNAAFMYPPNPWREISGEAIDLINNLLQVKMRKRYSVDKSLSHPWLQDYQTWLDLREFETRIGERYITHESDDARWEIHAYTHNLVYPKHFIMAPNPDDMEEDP
ACVR1 (human), sequence (Q04771 whole entry, looked up): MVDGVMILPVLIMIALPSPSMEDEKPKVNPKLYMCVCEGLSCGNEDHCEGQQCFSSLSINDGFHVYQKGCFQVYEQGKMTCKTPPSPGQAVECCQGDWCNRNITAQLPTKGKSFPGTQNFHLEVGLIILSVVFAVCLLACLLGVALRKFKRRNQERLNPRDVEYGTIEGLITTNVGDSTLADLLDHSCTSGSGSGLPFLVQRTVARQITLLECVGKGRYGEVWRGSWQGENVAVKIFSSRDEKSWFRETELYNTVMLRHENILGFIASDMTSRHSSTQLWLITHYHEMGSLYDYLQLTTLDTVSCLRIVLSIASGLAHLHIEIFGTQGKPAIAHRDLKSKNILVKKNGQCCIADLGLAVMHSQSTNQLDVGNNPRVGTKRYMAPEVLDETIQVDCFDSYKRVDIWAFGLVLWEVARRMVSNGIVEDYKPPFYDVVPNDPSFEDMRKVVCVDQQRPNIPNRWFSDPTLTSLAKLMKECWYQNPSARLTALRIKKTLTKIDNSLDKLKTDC
JAK1 JH2 pseudokinase (human), sequence (P23458 whole entry, looked up): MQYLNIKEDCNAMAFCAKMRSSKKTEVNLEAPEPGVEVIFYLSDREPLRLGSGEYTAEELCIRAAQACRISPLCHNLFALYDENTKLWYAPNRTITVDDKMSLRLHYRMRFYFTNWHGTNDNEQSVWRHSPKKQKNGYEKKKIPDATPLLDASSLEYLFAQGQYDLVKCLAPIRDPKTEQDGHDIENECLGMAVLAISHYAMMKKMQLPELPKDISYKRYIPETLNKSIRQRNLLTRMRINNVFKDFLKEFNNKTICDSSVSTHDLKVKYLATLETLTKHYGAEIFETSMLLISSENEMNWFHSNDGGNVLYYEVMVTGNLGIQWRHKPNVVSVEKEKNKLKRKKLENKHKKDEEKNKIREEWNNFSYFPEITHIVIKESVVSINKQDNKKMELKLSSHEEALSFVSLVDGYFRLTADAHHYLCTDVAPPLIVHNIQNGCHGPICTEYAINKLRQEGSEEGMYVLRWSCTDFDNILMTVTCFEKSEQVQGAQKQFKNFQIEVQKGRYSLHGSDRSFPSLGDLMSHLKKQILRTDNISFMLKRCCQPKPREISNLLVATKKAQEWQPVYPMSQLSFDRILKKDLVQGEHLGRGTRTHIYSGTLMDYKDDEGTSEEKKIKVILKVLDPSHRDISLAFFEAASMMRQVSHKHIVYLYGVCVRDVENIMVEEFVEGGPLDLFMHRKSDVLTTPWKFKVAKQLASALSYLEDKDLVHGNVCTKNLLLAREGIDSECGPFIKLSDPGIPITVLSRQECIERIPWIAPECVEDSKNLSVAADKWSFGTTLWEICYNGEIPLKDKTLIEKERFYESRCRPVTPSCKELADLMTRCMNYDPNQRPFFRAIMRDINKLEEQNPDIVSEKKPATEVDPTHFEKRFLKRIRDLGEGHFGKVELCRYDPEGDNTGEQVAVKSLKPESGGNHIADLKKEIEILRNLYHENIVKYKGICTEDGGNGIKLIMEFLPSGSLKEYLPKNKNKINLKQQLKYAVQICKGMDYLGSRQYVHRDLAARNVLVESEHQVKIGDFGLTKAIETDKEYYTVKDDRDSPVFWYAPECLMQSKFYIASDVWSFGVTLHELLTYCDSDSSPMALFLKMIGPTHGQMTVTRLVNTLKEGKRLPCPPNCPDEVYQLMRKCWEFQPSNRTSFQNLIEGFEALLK
KIT (human), P10721 [V559D/T670I], sequence (P10721 whole entry V559D/T670I, looked up): as the sequence (P10721 whole entry V559D/V654A, looked up) above, with A654V, T670I counted along it
MAPK8 (human), sequence (P45983 whole entry, looked up): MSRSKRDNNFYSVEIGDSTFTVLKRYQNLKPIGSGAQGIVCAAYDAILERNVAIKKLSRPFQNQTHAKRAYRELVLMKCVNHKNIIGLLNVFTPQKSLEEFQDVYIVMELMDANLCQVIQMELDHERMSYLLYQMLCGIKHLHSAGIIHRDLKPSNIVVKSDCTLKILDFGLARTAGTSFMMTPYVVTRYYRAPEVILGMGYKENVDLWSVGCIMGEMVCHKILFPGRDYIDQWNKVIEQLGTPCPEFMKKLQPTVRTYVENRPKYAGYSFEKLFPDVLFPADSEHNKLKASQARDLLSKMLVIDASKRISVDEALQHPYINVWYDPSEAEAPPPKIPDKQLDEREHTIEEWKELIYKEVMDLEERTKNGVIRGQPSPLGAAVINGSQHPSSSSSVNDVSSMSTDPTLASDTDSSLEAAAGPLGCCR
KIT (human), P10721 [V559D], sequence (P10721 whole entry V559D, looked up): as the sequence (P10721 whole entry V559D/V654A, looked up) above, with A654V counted along it

kinase still bound, per cent of control (ACVR1 (human)): 95%
kinase still bound, per cent of control (CAMKK1 (human)): 77%
kinase still bound, per cent of control (CLK2 (human)): 55%
kinase still bound, per cent of control (CLK3 (human)): 100%
kinase still bound, per cent of control (CLK4 (human)): 70%
kinase still bound, per cent of control (CSNK1G3 (human)): 90%
kinase still bound, per cent of control (DAPK2 (human)): 36%
kinase still bound, per cent of control [4]: 64%
kinase still bound, per cent of control [5]: 76%
kinase still bound, per cent of control (FLT3 (human)): 95%
kinase still bound, per cent of control [6]: 73%
kinase still bound, per cent of control [1]: 68%
kinase still bound, per cent of control [7]: 100%
kinase still bound, per cent of control (GAK (human)): 12%
kinase still bound, per cent of control [8]: 70%
kinase still bound, per cent of control [2]: 79%
kinase still bound, per cent of control [9]: 100%
kinase still bound, per cent of control [3]: 93%
kinase still bound, per cent of control (MAP2K3 (human)): 92%
kinase still bound, per cent of control (MAP2K4 (human)): 82%
kinase still bound, per cent of control (MAPK8 (human)): 68%
kinase still bound, per cent of control (MELK (human)): 78%
kinase still bound, per cent of control (MKNK1 (human)): 48%
kinase still bound, per cent of control (PDGFRB (human)): 87%
kinase still bound, per cent of control (PIM2 (human)): 100%
kinase still bound, per cent of control (PRKD3 (human)): 22%
kinase still bound, per cent of control (RIPK4 (human)): 79%
kinase still bound, per cent of control (RPS6KA1 KD2 (human)): 8%
kinase still bound, per cent of control (RPS6KA6 KD2 (human)): 3.2%
kinase still bound, per cent of control (SRPK2 (human)): 100%
kinase still bound, per cent of control (SRPK3 (human)): 89%
kinase still bound, per cent of control (STK11 (human)): 91%
kinase still bound, per cent of control (STK16 (human)): 48%
kinase still bound, per cent of control (STK24 (human)): 84%
kinase still bound, per cent of control (STK33 (human)): 3.3%
kinase still bound, per cent of control (TAOK1 (human)): 60%
kinase still bound, per cent of control (TLK1 (human)): 91%
kinase still bound, per cent of control (TNIK (human)): 48%
kinase still bound, per cent of control (TNK1 (human)): 5.8%
kinase still bound, per cent of control (TTK (human)): 6.1%
kinase still bound, per cent of control [10]: 70%
kinase still bound, per cent of control (ULK2 (human)): 80%
Structure (SMILES): COc1cc(N2CCC(O)CC2)ccc1Nc1ncc2c(n1)N1CCc3cccc(c31)C(=O)N2C

kinase still bound, per cent of control (ACVR1 (human)): 0.5%
kinase still bound, per cent of control (CAMKK1 (human)): 3.4%
kinase still bound, per cent of control (CLK2 (human)): 1.6%
kinase still bound, per cent of control (CLK3 (human)): 18%
kinase still bound, per cent of control (CLK4 (human)): 2.8%
kinase still bound, per cent of control (DAPK2 (human)): 7.4%
kinase still bound, per cent of control [5]: 26%
kinase still bound, per cent of control (FLT3 (human)): 10%
kinase still bound, per cent of control [6]: 3.3%
kinase still bound, per cent of control [1]: 0.45%
kinase still bound, per cent of control [7]: 1.2%
kinase still bound, per cent of control (GAK (human)): 0.9%
kinase still bound, per cent of control [8]: 13%
kinase still bound, per cent of control [2]: 14%
kinase still bound, per cent of control [9]: 23%
kinase still bound, per cent of control [3]: 7.2%
kinase still bound, per cent of control (MAPK8 (human)): 20%
kinase still bound, per cent of control (MELK (human)): 28%
kinase still bound, per cent of control (MKNK1 (human)): 0.8%
kinase still bound, per cent of control (PDGFRB (human)): 5.4%
kinase still bound, per cent of control (PIM2 (human)): 0.9%
kinase still bound, per cent of control (PRKD3 (human)): 26%
kinase still bound, per cent of control (RIPK4 (human)): 4.7%
kinase still bound, per cent of control (RPS6KA1 KD2 (human)): 11%
kinase still bound, per cent of control (RPS6KA6 KD2 (human)): 8.6%
kinase still bound, per cent of control (SRPK2 (human)): 9.9%
kinase still bound, per cent of control (SRPK3 (human)): 7.2%
kinase still bound, per cent of control (STK11 (human)): 6%
kinase still bound, per cent of control (STK16 (human)): 2.6%
kinase still bound, per cent of control (STK24 (human)): 16%
kinase still bound, per cent of control (STK33 (human)): 12%
kinase still bound, per cent of control (TAOK1 (human)): 10%
kinase still bound, per cent of control (TLK1 (human)): 28%
kinase still bound, per cent of control (TNIK (human)): 8%
kinase still bound, per cent of control (TNK1 (human)): 14%
kinase still bound, per cent of control (TTK (human)): 2.4%
Structure (SMILES): N=C1NC(=O)/C(=C/c2ccc(-c3cncc4ccccc34)o2)S1

kinase still bound, per cent of control (ACVR1 (human)): 14%
kinase still bound, per cent of control (CAMKK1 (human)): 5.6%
kinase still bound, per cent of control (CLK2 (human)): 3.1%
kinase still bound, per cent of control (CLK4 (human)): 6.1%
kinase still bound, per cent of control (DAPK2 (human)): 9.3%
kinase still bound, per cent of control [5]: 27%
kinase still bound, per cent of control (FLT3 (human)): 16%
kinase still bound, per cent of control [6]: 7.4%
kinase still bound, per cent of control [1]: 1.8%
kinase still bound, per cent of control [7]: 6.2%
kinase still bound, per cent of control (GAK (human)): 1.3%
kinase still bound, per cent of control [8]: 8.5%
kinase still bound, per cent of control [9]: 23%
kinase still bound, per cent of control [3]: 26%
kinase still bound, per cent of control (MAP2K4 (human)): 20%
kinase still bound, per cent of control (MAPK8 (human)): 7%
kinase still bound, per cent of control (MKNK1 (human)): 33%
kinase still bound, per cent of control (PDGFRB (human)): 18%
kinase still bound, per cent of control (PIM2 (human)): 0.55%
kinase still bound, per cent of control (RPS6KA1 KD2 (human)): 2.6%
kinase still bound, per cent of control (RPS6KA6 KD2 (human)): 5.4%
kinase still bound, per cent of control (SRPK2 (human)): 32%
kinase still bound, per cent of control (SRPK3 (human)): 14%
kinase still bound, per cent of control (STK11 (human)): 17%
kinase still bound, per cent of control (STK16 (human)): 9.8%
kinase still bound, per cent of control (STK24 (human)): 12%
kinase still bound, per cent of control (TLK1 (human)): 5.8%
kinase still bound, per cent of control (TNIK (human)): 11%
kinase still bound, per cent of control (TNK1 (human)): 8.4%
kinase still bound, per cent of control (TTK (human)): 17%
kinase still bound, per cent of control [10]: 5%
Structure (SMILES): O=C1NC(=S)S/C1=C\c1ccc(-c2cncc3ccccc23)o1

Second part, the molecule before the results:

Structure (SMILES): CS(=O)(=O)Nc1ccc(-c2cc(/C=C3\SC(=N)NC3=O)c[nH]c2=O)cc1
kinase still bound, per cent of control (ACVR1 (human)): 27%
kinase still bound, per cent of control (CAMKK1 (human)): 33%
kinase still bound, per cent of control (CLK2 (human)): 5.2%
kinase still bound, per cent of control (CLK3 (human)): 2.4%
kinase still bound, per cent of control (CLK4 (human)): 6%
kinase still bound, per cent of control (DAPK2 (human)): 2.2%
kinase still bound, per cent of control (FLT3 (human)): 8.6%
kinase still bound, per cent of control [1]: 20%
kinase still bound, per cent of control [2]: 32%
kinase still bound, per cent of control [3]: 12%
kinase still bound, per cent of control (MAP2K3 (human)): 10%
kinase still bound, per cent of control (PIM2 (human)): 3.4%
kinase still bound, per cent of control (PRKD3 (human)): 33%
kinase still bound, per cent of control (SRPK2 (human)): 2.3%
kinase still bound, per cent of control (SRPK3 (human)): 14%
kinase still bound, per cent of control (STK11 (human)): 7%
kinase still bound, per cent of control (TAOK1 (human)): 23%
kinase still bound, per cent of control (TTK (human)): 33%

Structure (SMILES): Nc1cccc(-c2cc(/C=C3\SC(=O)NC3=O)c[nH]c2=O)c1
kinase still bound, per cent of control (CAMKK1 (human)): 3.6%
kinase still bound, per cent of control (CLK2 (human)): 0%
kinase still bound, per cent of control (CLK3 (human)): 1.2%
kinase still bound, per cent of control (CLK4 (human)): 16%
kinase still bound, per cent of control (CSNK1G3 (human)): 13%
kinase still bound, per cent of control (DAPK2 (human)): 0.2%
kinase still bound, per cent of control [4]: 4.8%
kinase still bound, per cent of control [5]: 21%
kinase still bound, per cent of control (GAK (human)): 9.2%
kinase still bound, per cent of control (MELK (human)): 30%
kinase still bound, per cent of control (PIM2 (human)): 1%
kinase still bound, per cent of control (SRPK2 (human)): 26%
kinase still bound, per cent of control (SRPK3 (human)): 13%
kinase still bound, per cent of control (STK11 (human)): 19%
kinase still bound, per cent of control (STK16 (human)): 9.3%
kinase still bound, per cent of control (STK33 (human)): 19%
kinase still bound, per cent of control (TAOK1 (human)): 21%
kinase still bound, per cent of control (ULK2 (human)): 33%
